In patent US11078216B2, “Bisaryl amides as NRF2 activators” (GLAXOSMITHKLINE INTELLECTUAL PROPERTY DEVELOPMENT LIMITED, priority 2016, dated 2021):
Structures can show the parent of a compound that is named as a salt.

Tested on: NRF2 (NQO1 activity as marker for NRF2 activation), BEAS-2B cells
Experiment: BEAS-2B NQO1 MTT Assay
Type: cell-based
Conditions: Homo sapiens, EC50 of NQO1 specific activity induction, 48 hours incubation, read-out: EC50
Outline: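 BEAS-2B cells were exposed to compound for 48 h at 37° C, 5% CO2, then lysed. NQO1 activity was measured kinetically by MTT reduction at 570 nm over 30 minutes; EC50 came from 3-parameter fit of Delta OD/min versus log concentration.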

| SMILES | EC50 |
| --- | --- |
| CC[C@H]1Cc2ccccc2S(=O)(=O)N(Cc2cc([C@@H](c3ccc4c(nnn4CC)c3C)C(C)(C)C(=O)Nc3nnnn3-c3ccccc3)ccc2C)C1 [Example 72, (S)-3-(3-(((S)-4-Ethyl-1,1-dioxido-4,5-dihydrobenzo[f][1,2]thiazepin-2(3H)-yl)methyl)-4-methylphenyl)-3-(1-ethyl-4-methyl-1H-benzo[d][1,2,3]triazol-5-yl)-2,2-dimethyl-N-(1-phenyl-1H-tetrazol-5-yl)propanamide] | 10 to 100 nM |
| CC[C@H]1Cc2ccccc2S(=O)(=O)N(Cc2cc([C@@H](c3ccc4c(nnn4CC)c3C)C(C)(C)C(=O)Nc3nnnn3CC(C)=O)ccc2C)C1 [Example 73, (S)-3-(3-(((S)-4-Ethyl-1,1-dioxido-4,5-dihydrobenzo[f][1,2]thiazepin-2(3H)-yl)methyl)-4-methylphenyl)-3-(1-ethyl-4-methyl-1H-benzo[d][1,2,3]triazol-5-yl)-2,2-dimethyl-N-(1-(2-oxopropyl)-1H-tetrazol-5-yl)propanamide] | 10 to 100 nM |
| CC[C@H]1Cc2ccccc2S(=O)(=O)N(Cc2cc([C@@H](c3ccc4c(nnn4CC)c3C)C(C)(C)C(=O)Nc3nnnn3-c3ccccn3)ccc2C)C1 [Example 74, (S)-3-(3-(((S)-4-Ethyl-1,1-dioxido-4,5-dihydrobenzo[f][1,2]thiazepin-2(3H)-yl)methyl)-4-methylphenyl)-3-(1-ethyl-4-methyl-1H-benzo[d][1,2,3]triazol-5-yl)-2,2-dimethyl-N-(1-(pyridin-2-yl)-1H-tetrazol-5-yl)propanamide] | 1 to 10 nM |
| CC[C@H]1Cc2ccccc2S(=O)(=O)N(Cc2cc([C@@H](c3ccc4c(nnn4CC)c3C)C(C)(C)C(=O)Nc3nnnn3Cc3nccs3)ccc2C)C1 [Example 75, (S)-3-(3-(((S)-4-Ethyl-1,1-dioxido-4,5-dihydrobenzo[f][1,2]thiazepin-2(3H)-yl)methyl)-4-methylphenyl)-3-(1-ethyl-4-methyl-1H-benzo[d][1,2,3]triazol-5-yl)-2,2-dimethyl-N-(1-(thiazol-2-ylmethyl)-1H-tetrazol-5-yl)propanamide] | 1 to 10 nM |
| CC[C@H]1Cc2ccccc2S(=O)(=O)N(Cc2cc([C@@H](c3ccc4c(nnn4CC)c3C)C(C)(C)C(=O)Nc3nnnn3CC(=O)O)ccc2C)C1 [Example 76, 2-(5-((S)-3-(3-(((S)-4-Ethyl-1,1-dioxido-4,5-dihydrobenzo[f][1,2]thiazepin-2(3H)-yl)methyl)-4-methylphenyl)-3-(1-ethyl-4-methyl-1H-benzo[d][1,2,3]triazol-5-yl)-2,2-dimethylpropanamido)-1H-tetrazol-1-yl)acetic Acid] | 10 to 100 nM |
| CC[C@@H]1CN(Cc2cc([C@@H](c3ccc4c(nnn4CC)c3C)C(C)(C)NC(=O)c3nnn[nH]3)ccc2C)S(=O)(=O)c2ccccc2O1 [Example 77, N—((S)-1-(3-(((R)-4-Ethyl-1,1-dioxido-3,4-dihydro-2H-benzo[b][1,4,5]oxathiazepin-2-yl)methyl)-4-methylphenyl)-1-(1-ethyl-4-methyl-1H-benzo[d][1,2,3]triazol-5-yl)-2-methylpropan-2-yl)-1H-tetrazole-5-carboxamide, Trifluoroacetic Acid Salt] | 100 to 1000 nM |
| CC[C@H]1Cc2ccc(C(F)(F)F)cc2S(=O)(=O)N(Cc2cc([C@@H](c3ccc4c(nnn4CC)c3C)C(C)(C)NC(=O)Cc3nnn[nH]3)ccc2C)C1 [Example 78, N—((S)-1-(3-(((S)-4-Ethyl-1,1-dioxido-8-(trifluoromethyl)-4,5-dihydrobenzo[f][1,2]thiazepin-2(3H)-yl)methyl)-4-methylphenyl)-1-(1-ethyl-4-methyl-1H-benzo[d][1,2,3]triazol-5-yl)-2-methylpropan-2-yl)-2-(1H-tetrazol-5-yl)acetamide] | 10 to 100 nM |
| CC[C@@H]1CN(Cc2cc([C@@H](c3ccc4c(nnn4C)c3C)C(C)(C)C(=O)NCCNC)ccc2C)Cc2cnccc2O1 [Example 79, (S)-3-(1,4-Dimethyl-1H-benzo[d][1,2,3]triazol-5-yl)-3-(3-(((R)-2-ethyl-2,3-dihydropyrido[3,4-f][1,4]oxazepin-4(5H)-yl)methyl)-4-methylphenyl)-2,2-dimethyl-N-(2-(methylamino)ethyl)propanamide] | 100 to 1000 nM |
